Results on eight molecules are retold here after ChEMBL document CHEMBL1772945, “Bioactive compounds from the scale insect pathogenic fungus Conoideocrella tenuis BCC 18627” (J Nat Prod, 2011).

≈ marks a conversion by molar mass, not a printed value. Structures can show the parent of a compound that is named as a salt.

Test [1] concerns Plasmodium falciparum. In words: Antimalarial activity against multi-drug-resistant Plasmodium falciparum K1 by microculture radioisotope technique. The test is classed as functional, organism-based.
Test [2] has as its system Mycobacterium tuberculosis. In words: Antitubercular activity against Mycobacterium tuberculosis H37Ra by green fluorescent protein microplate assay. The test is classed as functional.
Test [3] deals with Human alphaherpesvirus 1. In words: Antiviral activity against HSV-1 by green fluorescent protein microplate assay. The class given is functional, organism-based.
The test system of test [4] is KB. In words: Cytotoxicity against human KB cells after 45 hrs by resazurin microplate assay. The test is classed as functional, cell-based. For orientation: Resazurin is reduced to fluorescent resorufin, in cell work by metabolically active cells.
The subject of test [5] is MCF7. In words: Cytotoxicity against human MCF7 cells after 45 hrs by resazurin microplate assay. Conditions: MCF7, 45 h. The test is classed as functional, cell-based.
The subject of test [6] is NCI-H187. In words: Cytotoxicity against human NCI-H187 cells after 45 hrs by resazurin microplate assay. The class given is functional, cell-based. Conditions: NCI-H187, 45 h.
The subject of test [7] is Vero. Kind of test: Cytotoxicity against african green monkey Vero cells by green fluorescent protein microplate assay. The class given is cell-based. Conditions: Chlorocebus sabaeus.

As usually defined, the IC50 is the concentration needed to halve the response being measured. The term MIC denotes the lowest concentration found to suppress growth. `CC(C)(O)[C@H]1CC[C@]2(C)[C@H]3C[C@@H](O)[C@@H]4[C@@]5(C)CCCC(C)(C)[C@@H]5[C@H](O)C[C@@]4(C)[C@]3(C=O)CC[C@@H]12`: the IC50 in test [1] is more than 21 µM; in test [3] it was 21 µM; in test [4], 10 µM; in test [5] it was 28 µM; in test [6] it was 68 µM; in test [7], 69 µM. The molecule further gave an MIC in test [2] of more than 105 µM.
Turning to `CC(C)(O)[C@H]1CC[C@]2(C)[C@H]3C[C@@H](O)[C@@H]4[C@@]5(C)CCCC(C)(C)[C@@H]5[C@H](O)C[C@@]4(C)[C@]3(CO)CC[C@@H]12`, the IC50 in test [1] is 9.8 µM; in test [3], 14 µM; in test [4], 5.6 µM; in test [5], 15 µM; in test [6] it was 47 µM; in test [7], 47 µM. 52 µM (≈ 24.8 µg/mL) was the least that counted as inhibitory in test [2] (MIC).
As for `CC(C)(O)[C@H]1CC[C@]2(C)[C@H]3CC[C@@H]4[C@@]5(C)CCCC(C)(C)[C@@H]5[C@H](O)[C@H](O)[C@@]4(C)[C@]3(C)CC[C@@H]12`, the IC50 in test [1] was more than 22 µM; in test [3], more than 109 µM; in test [4], more than 109 µM; in test [5], more than 109 µM; in test [6], more than 109 µM; in test [7] it was more than 109 µM. The MIC in test [2] was more than 109 µM.
In the case of `COc1cc(OC)c2c(O)c3c(c(-c4c(OC)cc(OC)c5c(O)c6c(cc45)[C@H](OC(C)=O)[C@H](C)OC6)c2c1)[C@H](OC(C)=O)[C@H](C)OC3`, the IC50 in test [1] is 15 µM; in test [3], more than 75 µM; in test [4] it was 15 µM; in test [5] it was 37 µM; in test [6], 12 µM; in test [7], more than 75 µM. This molecule had a minimal inhibitory concentration (MIC) in test [2] of more than 75 µM.
On to `COc1cc(OC)c2c(O)c3c(c(-c4c5c(c(O)c6c(OC)cc(OC)cc46)CO[C@@H](C)[C@H]5OC(C)=O)c2c1)[C@H](OC(C)=O)[C@H](C)OC3`, for which the IC50 in test [1] was 10 µM; in test [3] it was more than 75 µM; in test [4], 4.4 µM; in test [5], 22 µM; in test [6] it was 71 µM; in test [7], more than 75 µM. Moreover, the MIC in test [2] was more than 75 µM.
Regarding `Nc1nc2c(ncn2COCCO)c(=O)[nH]1` [ACYCLOVIR], in test [3], half-maximal inhibition (IC50) was put at 17 µM.
As for `COc1cccc2c1C(=O)c1c(O)c3c(c(O)c1C2=O)C[C@@](O)(C(=O)CO)C[C@@H]3O[C@H]1C[C@H](N)[C@H](O)[C@H](C)O1` [DOXORUBICIN HYDROCHLORIDE], the figures for the IC50 in test [4], in test [5] and in test [6] were 0.27 µM, 4.9 µM and 0.23 µM, respectively.
Turning to `Cc1c2ccncc2c(C)c2c1[nH]c1ccccc12` [ELLIPTECINE], the IC50 in test [7] amounted to 12 µM.
